Reference: patent US20250129021A1, “SMALL MOLECULE PROTEIN SYNTHESIS MODULATORS” (Interdict Bio, Inc., priority 2023, published 2025)
pIC50: −log10 of the molar value. Where two headings read alike, the source gives them in different places.

Experiments:
Format in all cases: biochemical
Details in all cases: HeLa S3 lysate, 2 hrs at 30° C.
MYC = assay: In vitro transcription-translation (IVTT) assay, MYC reporter
Source text: (§1) All reporter constructs have been cloned into the pT7CFE1-CHis plasmid (ThermoFisher #88860) using Gibson assembly procedures (NEB #E2611L). The parental pT7CFE1-CHis plasmid contains an EMCV IRES at the 5′UTR for translation initiation, a multiple-cloning site (MCS) for gene insertion, an optional C-terminal His-epitope tag, and polyA sequence in the 3′UTR to regulate mRNA stability. All reporters are designed to be inserted at the MCS to include a red fluorescent protein (mCherry), P2A self-cleaving peptide which releases the preceding mCherry protein product, and a fusion open reading frame containing a 3×FLAG epitope, a peptide sequence of interest (TEST), and green fluorescent protein (sfGFP).
(§2) Construct Plasmid Preparation: All plasmids are isolated from MACH1 cells (ThermoFisher) grown overnight in ampicillin-containing luria broth, and purified using ZymoPure Express Plasmid Midiprep Kit (Zymo Research). Constructs are sequenced verified and diluted to a working concentration of 110 ng/μL.
(§3) HeLa S3 Lysate Preparation: HeLa S3 cell pellets are acquired from Ipracell/Ipratech (Belgium) and shipped as 4 mL frozen cell pellets on dry ice for storage at −80° C. until use. The procedure for lysate preparation is as follows. Prepare 1× Lysis Buffer, cold and stored on ice:
(§4) Each preparation takes 8 cell pellets (4 ml packed volume each, approximately 1.0×10^9 cells per pellet). Thaw cell pellets from −80° C. on ice for 90 mins. Lay pellets horizontally on top of the ice and rotate every 30 mins to ensure even thawing. Once thawed, add 4 mL of cold lysis buffer to each pellet, and using a serological pipet, gently pipet up and down to break up clumps. Incubate resuspended cells in ice for an additional 30 mins (plunged into ice). During 30 min incubation, rinse and RNase-zap (Ambion) glass dounces (use loose pestle “A”), gently dry and place on ice until needed. Prepare RNase-free Eppendorf tubes for spinning and for batch storage. Add batch labels to 1.5-1.7 mL RNase-free microcentrifuge tubes (labeling scheme below). Each batch will have an extra 1.5-1.7 mL RNase-free microcentrifuge tube for 40 μL of lysate, label the top of this tube (labeling scheme below). After 30 min incubation, transfer all 8 mL of cell pellet to dounce. Cell lysis is complete after douncing 100 times. Aliquot cell lysis into 1.5-1.7 mL temporary-microcentrifuge tubes. Place tubes in centrifuge with “fins” out, and spin at 1,200×g for 5 mins. After the first spin use a 1 mL pipet to resuspend each tube and repeat spin. This acts as an additional lysis step, is more vigorous and increases lysate yield. During second spin get liquid N2 and a fresh conical tube on ice. After spin is complete, transfer supernatant (lysate) from microcentrifuge tubes into the 50 mL conical tube and keep on ice. Repeat steps 10-14 for all other cell pellets until completed. Once all cell lysate has been transferred to the 50 mL conical tube pipet to mix so the solution is homogenous. Transfer 1 mL of lysate into batch-labeled microcentrifuge tubes and flash freeze in liquid nitrogen. Be sure to pipet up and down to mix throughout transfer step. Place all tubes in the […] for long-term storage.
(§5) In vitro transcription-translation assay setup: Each assay includes a master mix containing lysate and shared components, a 96-well plate containing compound titrations for testing, a 96-well DNA plate with reporter constructs to be tested, 96-well skirted PCR plates, and 96-well flat-bottom, black, fluorescent assay plates. […]

MCL-1 = assay: In vitro transcription-translation (IVTT) assay, MCL-1 reporter
Source text: as §1, §2, §3, §4, §5

CCND1 = assay: In vitro transcription-translation (IVTT) assay, CCND1 reporter
Source text: as §1, §2, §3, §4, §5

CCNTB1 = assay: In vitro transcription-translation (IVTT) assay, CCNTB1 reporter
Description: as §4
In vitro transcription-translation assay setup: Each assay includes a master mix containing lysate and shared components, a 96-well plate containing compound titrations for testing, a 96-well DNA plate with reporter constructs to be tested, 96-well skirted PCR plates, and 96-well flat-bottom, black, fluorescent assay plates. Reaction materials setup: (A) Master mix—15 mL conical tube (3 mL of HeLa S3 Lysate described above; 0.6 mL of ThermoFisher Accessory Proteins (#88882); 1.2 ml of ThermoFisher Reaction Mix (#88882); 0.54 mL of nuclease-free Water); (B) 96-Well Master Mix+Compound Plate (Half-log dilutions (30 μM−0.1 μM) of 4 compounds of interest are prepared in 100% DMSO); 96-Well DNA Plate (Five DNA constructs are plated into single columns within the plate. Row 1 of the column contains nuclease free H2O, all other wells contain 110 ng/μL plasmid DNA). Reactions are started by mixing 155 μL of master mix and 3.5 μL of compound serial dilutions, then 9.1 μL of master mix+compound mixture is aliquoted across 5 96-well plates. Reactions begin with final addition of 2 μL of DNA for a 11.1 μL reaction volume in each well. The entire plate is sealed, and incubated for 2 hrs at 30° C. After 2 hrs, quench the assay using 45 μL of PBS, and transfer 50 μL to a flat-bottom black microplate Quantify the sfGFP and mCherry signals from each well on each plate, taking 3 reads of each plate, and perform data analysis below.
In vitro transcription-translation assay data analysis: Each plate is read three times in channels for both sfGFP and mCherry signals. The average signal across these 3 reads is then calculated for further analysis. Control wells containing no DNA reporter are subtracted from reporter wells in the same column to remove auto-fluorescence of the lysate. Then, the ratio of sfGFP/mCherry is calculated per well, and these ratios are averaged across the triplicate experiments on the same plate. Finally, the ratio of each titration concentration is normalized to the no drug control to create the normalized stalling metric. […]

[1] = IVTT assay, MYC reporter, normalized sfGFP/mCherry ratio, half-log dilutions 30 μM-0.1 μM

| Structure (SMILES) | pIC50 (MYC; [1]) | pIC50 (MCL-1; IVTT, read-out: MCL1 IC50) | pIC50 (CCND1; IVTT) | pIC50 (CCNTB1) | pIC50 (MYC; sfGFP/mCherry ratio) | pIC50 (MCL-1; sfGFP/mCherry ratio) | pIC50 (CCND1; sfGFP/mCherry ratio) |
| --- | --- | --- | --- | --- | --- | --- | --- |
| COc1ccc(C[C@H]2NC[C@H](O)[C@H]2OC(=O)NCC[C@@H]2CCN2)cc1 [V191920, (2R,3S,4S)-4-hydroxy-2-[(4-methoxyphenyl)methyl]pyrrolidin-3-yl N-{2-[(2S)-azetidin-2-yl]ethyl}carbamate] | > 5.00 | > 5.00 | > 5.00 | > 5.00 | – | – | – |
| COc1ccc(C[C@H]2NC[C@H](O)[C@H]2OC(=O)NCc2cnoc2)cc1 [V188383, (2R,3S,4S)-4-hydroxy-2-[(4-methoxyphenyl)methyl]pyrrolidin-3-yl N-(1,2-oxazol-4-ylmethyl)carbamate] | > 5.00 | > 5.00 | > 5.00 | > 5.00 | – | – | – |
| COc1ccc(C[C@H]2NC[C@H](O)[C@H]2OC(=O)NCc2ccc3cnccc3c2)cc1 [V188348, (2R,3S,4S)-4-hydroxy-2-[(4-methoxyphenyl)methyl]pyrrolidin-3-yl N-(isoquinolin-6-ylmethyl)carbamate] | > 5.00 | > 5.00 | > 5.00 | > 5.00 | – | – | – |
| O=C(NCc1cccc(F)c1)O[C@@H]1[C@@H](O)CN[C@@H]1Cc1ccc(-c2ncco2)cc1 [V190514, (2R,3S,4S)-4-hydroxy-2-{[4-(1,3-oxazol-2-yl)phenyl]methyl}pyrrolidin-3-yl N-[(3-fluorophenyl)methyl]carbamate] | > 5.00 | > 5.00 | > 5.00 | > 5.00 | – | – | – |
| O=C(NCc1cccc(F)c1)O[C@@H]1[C@@H](O)CN[C@@H]1Cc1ccc(-c2cncs2)cc1 [V190546, (2R,3S,4S)-4-hydroxy-2-{[4-(1,3-thiazol-5-yl)phenyl]methyl}pyrrolidin-3-yl N-[(3-fluorophenyl)methyl]carbamate] | > 5.00 | > 5.00 | > 5.00 | > 5.00 | – | – | – |
| COc1ccc(C[C@H]2NC[C@H](O)[C@H]2OC(=O)NCc2ccc(Cl)s2)cc1 [V188373, (2R,3S,4S)-4-hydroxy-2-[(4-methoxyphenyl)methyl]pyrrolidin-3-yl N-[(5-chlorothiophen-2-yl)methyl]carbamate] | > 5.00 | > 5.00 | > 5.00 | > 5.00 | – | – | – |
| COc1ccc(C[C@H]2NC[C@H](O)[C@H]2OC(=O)NCc2cccc(F)c2)cc1 [V188379, (2R,3S,4S)-4-hydroxy-2-[(4-methoxyphenyl)methyl]pyrrolidin-3-yl N-[(3-fluorophenyl)methyl]carbamate] | > 5.00 | > 5.00 | > 5.00 | > 5.00 | – | – | – |
| CC(F)(F)c1ccc(C[C@H]2NC[C@H](O)[C@H]2OC(=O)NCC[C@@H]2CCCN2)cc1 [V191885, (2R,3S,4S)-2-{[4-(1,1-difluoroethyl)phenyl]methyl}-4-hydroxypyrrolidin-3-yl N-{2-[(2S)-pyrrolidin-2-yl]ethyl}carbamate] | > 5.00 | > 5.00 | 4.70 to 5.00 | > 5.00 | – | – | – |
| COc1ccc(C[C@H]2NC[C@H](O)[C@H]2OC(=O)NCC[C@H]2CCCN2)cc1 [V188342, (2R,3S,4S)-4-hydroxy-2-[(4-methoxyphenyl)methyl]pyrrolidin-3-yl N-{2-[(2R)-pyrrolidin-2-yl]ethyl}carbamate] | > 5.00 | 4.70 to 5.00 | 4.52 to 4.70 | > 5.00 | – | – | – |
| O=C(NCC[C@@H]1CCCN1)O[C@@H]1[C@@H](O)CN[C@@H]1Cc1ccc(-c2ccc(S(F)(F)(F)(F)F)cc2)cc1 [V191968, (2R,3S,4S)-4-hydroxy-2-((4′-(pentafluoro-l6-sulfanyl)-[1,1′-biphenyl]-4-yl)methyl)pyrrolidin-3-yl (2-((S)-pyrrolidin-2-yl)ethyl)carbamate] | < 4.52 | – | – | < 4.52 | – | – | – |
| COc1ccc(C[C@H]2NC[C@H](O)[C@H]2OC(=O)NCC[C@@H]2CCC3(CC3)N2)cc1 [V191945, (2R,3S,4S)-4-hydroxy-2-[(4-methoxyphenyl)methyl]pyrrolidin-3-yl N-{2-[(5S)-4-azaspiro[2.4]heptan-5-yl]ethyl}carbamate] | > 5.00 | > 5.00 | 4.70 to 5.00 | > 5.00 | – | – | – |
| COc1ccc(C[C@H]2NC[C@H](O)[C@H]2OC(=O)NC2CC3(CCNC3)C2)cc1 (stereo partly drawn) [V190538, (2R,3S,4S)-4-hydroxy-2-[(4-methoxyphenyl)methyl]pyrrolidin-3-yl N-{6-azaspiro[3.4]octan-2-yl}carbamate] | < 4.52 | < 4.52 | < 4.52 | < 4.52 | – | – | – |
| COc1ccc(C[C@H]2NC[C@H](O)[C@H]2OC(=O)NCc2cnc(N)nc2)cc1 [V188037, (2R,3S,4S)-4-hydroxy-2-[(4-methoxyphenyl)methyl]pyrrolidin-3-yl N-[(2-aminopyrimidin-5-yl)methyl]carbamate] | – | – | – | – | > 5.00 | > 5.00 | > 5.00 |
| [H]/N=C(\N)CNC(=O)O[C@@H]1[C@@H](O)CN[C@@H]1Cc1ccc(OC)cc1 [Cmpd V187993] | – | – | – | – | 4.70 to 5.00 | 4.70 to 5.00 | 4.70 to 5.00 |
| COc1ccc(C[C@H]2NC[C@H](O)[C@H]2OC(=O)NCc2ccc(B(O)O)cc2)cc1 [V188106] | – | – | – | – | > 5.00 | > 5.00 | > 5.00 |
| COc1ccc(C[C@H]2NC[C@H](O)[C@H]2OC(=O)NCCNc2ccccn2)cc1 [V188059, (2R,3S,4S)-4-hydroxy-2-[(4-methoxyphenyl)methyl]pyrrolidin-3-yl N-[2-(pyridin-2-ylamino)ethyl]carbamate] | – | – | – | – | 4.70 to 5.00 | 4.70 to 5.00 | 4.70 to 5.00 |
| COc1ccc(C[C@H]2NC[C@H](O)[C@H]2OC(=O)NC[C@H]2CNC[C@@H]2O)cc1 [V188114, (2R,3S,4S)-4-hydroxy-2-[(4-methoxyphenyl)methyl]pyrrolidin-3-yl N-{[(3R,4R)-4-hydroxypyrrolidin-3-yl]methyl}carbamate] | – | – | – | – | 4.52 to 4.70 | 4.70 to 5.00 | < 4.52 |
| COc1ccc(C[C@H]2NC[C@H](O)[C@H]2OC(=O)NCCNc2ncccn2)cc1 [V188058] | – | – | – | – | < 4.52 | < 4.52 | < 4.52 |
| COc1ccc(C[C@H]2NC[C@H](O)[C@H]2OC(=O)NCC(N)=O)cc1 [V188002, (2R,3S,4S)-4-hydroxy-2-[(4-methoxyphenyl)methyl]pyrrolidin-3-yl N-(carbamoylmethyl)carbamate] | – | – | – | – | 4.52 to 4.70 | > 5.00 | > 5.00 |
